Molecular target: T1, HDAC6 enzyme (Homo sapiens, UniProt Q9UBN7)
T1 construct: prepared by transducing full length HDAC6 gene into Sf-9 insect cells; GST; purchased SignalChem; host or cells: Sf-9 insect cells
T1 sequence (Q9UBN7 1-1215): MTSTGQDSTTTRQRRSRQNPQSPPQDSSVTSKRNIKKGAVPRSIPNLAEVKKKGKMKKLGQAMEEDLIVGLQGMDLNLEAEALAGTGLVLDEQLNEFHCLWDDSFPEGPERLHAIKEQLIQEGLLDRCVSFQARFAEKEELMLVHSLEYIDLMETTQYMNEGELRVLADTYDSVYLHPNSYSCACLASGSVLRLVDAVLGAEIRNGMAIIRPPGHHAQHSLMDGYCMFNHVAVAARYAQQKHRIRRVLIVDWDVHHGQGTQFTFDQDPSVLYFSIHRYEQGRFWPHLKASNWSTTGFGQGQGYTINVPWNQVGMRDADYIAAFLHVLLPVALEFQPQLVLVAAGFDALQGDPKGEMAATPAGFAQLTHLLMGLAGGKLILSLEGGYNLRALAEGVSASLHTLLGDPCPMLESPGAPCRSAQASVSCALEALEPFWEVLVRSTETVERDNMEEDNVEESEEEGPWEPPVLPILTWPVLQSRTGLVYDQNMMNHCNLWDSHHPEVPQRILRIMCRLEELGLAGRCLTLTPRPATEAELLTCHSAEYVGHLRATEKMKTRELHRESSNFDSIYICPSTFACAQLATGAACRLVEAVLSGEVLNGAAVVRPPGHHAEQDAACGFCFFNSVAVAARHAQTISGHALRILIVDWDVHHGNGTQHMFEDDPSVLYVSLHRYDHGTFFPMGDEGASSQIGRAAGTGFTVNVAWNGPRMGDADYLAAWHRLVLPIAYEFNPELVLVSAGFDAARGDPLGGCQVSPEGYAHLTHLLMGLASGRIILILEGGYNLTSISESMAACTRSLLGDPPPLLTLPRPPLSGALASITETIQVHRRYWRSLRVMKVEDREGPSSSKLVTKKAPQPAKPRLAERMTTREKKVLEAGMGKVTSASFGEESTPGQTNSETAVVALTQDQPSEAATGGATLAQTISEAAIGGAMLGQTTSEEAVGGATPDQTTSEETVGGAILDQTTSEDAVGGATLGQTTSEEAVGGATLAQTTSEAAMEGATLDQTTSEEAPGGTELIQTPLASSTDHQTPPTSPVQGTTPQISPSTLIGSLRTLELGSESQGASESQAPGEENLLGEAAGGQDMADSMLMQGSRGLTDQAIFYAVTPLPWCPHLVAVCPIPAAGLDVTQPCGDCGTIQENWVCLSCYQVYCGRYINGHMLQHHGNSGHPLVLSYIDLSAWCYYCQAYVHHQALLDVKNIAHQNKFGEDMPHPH
Assay: HDAC6 enzyme inhibitory assay (HDAC-Glo I/II Assay kit, luminescence)
Format: biochemical
Conditions: 10 μM test compound; wells without enzyme = 100% inhibition; read-out: HDAC6 inhibitory rate (%) (10 μM)
Description: HDAC6 Enzyme Inhibitory Assay
HDAC6 enzyme prepared by transducing full length HDAC6 gene into Sf-9 insect cells and purifying by GST affinity column were purchased from SignalChem. Using this enzyme, HDAC6 enzyme inhibitory activities of the compound of the present invention were evaluated. Enzymes were used after preserved at −70° C. HDAC6 enzyme inhibitory activity of the compound of the present invention was measured using HDAC-Glo™ I/II Assay kit (Promega) according to the following experimental method. The test compound diluted with assay buffer (24 mM Tris-HCl (pH 7.5), 1 mM MgCl2, 0.35 mM KCl, 135 mM NaCl, 0.6 mM Glutathione, 0.01% Tween-20) was added to a 384-well plate by each 2 μL. Then, HDAC6 enzyme solution diluted with assay buffer was added thereto by each 4 μL, and the plate was incubated at room temperature for 60 min. After incubated, HDAC substrate-Developer solution prepared according to Promega protocol attached to the assay kit was added to the 384-well plate by each 2 μL, and the enzyme reaction was started. After reacting at room temperature for 20 min, luminescence level was measured using plate reader Envision (PerkinElmer). The inhibitory activity of each compound of Example was calculated as a relative activity value when luminescence level in wells without enzyme is considered as 100% inhibition.

Row | inhibition at 10 µM [%] | SMILES
1 | 97 | CN(C)c1ccc(CN(C)N2Cc3ccc(-c4nnc(C(F)F)o4)cc3C2=O)cc1 [Example 54c, 6-[5-(difluoromethyl)-1,3,4-oxadiazol-2-yl]-2-[{[4-(dimethylamino)phenyl]methyl} (methyl)amino]-2,3-dihydro-1H-isoindol-1-one]
2 | 100 | Fc1ccc(Cc2ccnn2-c2cc(-c3nnc(C(F)F)o3)ccn2)cc1 [Example 73a, 4-[5-(difluoromethyl)-1,3,4-oxadiazol-2-yl]-2-[5-[(4-fluorophenyl)methyl]-1H-pyrazol-1-yl}pyridine]
3 | 102 | COC(=O)c1ccccc1CN(C)N1Cc2ccc(-c3nnc(C(F)F)o3)cc2C1=O [Example 44c, methyl 2-{[{6-[5-(difluoromethyl)-1,3,4-oxadiazol-2-yl]-1-oxo-1,3-dihydro-2H-isoindol-2-yl}(methyl)amino]methyl}benzoate]
4 | 94 | CN(C1CC1)N1Cc2ccc(-c3nnc(C(F)F)o3)cc2C1=O [Example 66c, 2-[cyclopropyl(methyl)amino]-6-[5-(difluoromethyl)-1,3,4-oxadiazol-2-yl]-2,3-dihydro-1H-isoindol-1-one]
5 | 99 | FC(F)c1nnc(-c2ccnc(-n3ncc4c3C(c3ccccc3)CCC4)c2)o1 (stereo not drawn) [Example 77a]
6 | 100 | Cn1ccc(OC2CCOCC2)c(-c2cc(-c3nnc(C(F)F)o3)ccn2)c1=O [Example 91a, 4-[5-(difluoromethyl)-1,3,4-oxadiazol-2-yl]-1′-methyl-4′-[(oxan-4-yl)oxy][2,3′-bipyridine]-2′(1′H)-one]
7 | 100 | Cn1ccc(OC2CCOCC2)c(-c2cc(F)cc(-c3nnc(C(F)F)o3)c2)c1=O [Example 53a, 3-{3-[5-(difluoromethyl)-1,3,4-oxadiazol-2-yl]-5-fluorophenyl}-1-methyl-4-[(oxan-4-yl)oxy]pyridin-2(1H)-one]
8 | 101 | CN(Cc1ccccc1Oc1cnccn1)N1Cc2ccc(-c3nnc(C(F)F)o3)cc2C1=O [Example 59c, 6-[5-(difluoromethyl)-1,3,4-oxadiazol-2-yl]-2-[methyl({2-[(pyrazin-2-yl)oxy]phenyl}methyl)amino]-2,3-dihydro-1H-isoindol-1-one]
9 | 100 | N#Cc1ccnc(Cn2ccnc2-c2cc(-c3nnc(C(F)F)o3)ccn2)c1 [Example 95a, 2-[(2-{4-[5-(difluoromethyl)-1,3,4-oxadiazol-2-yl]pyridin-2-yl}-1H-imidazol-1-yl)methyl]pyridine-4-carbonitrile]
10 | 100 | Cn1ccc(OC2CCC(F)(F)CC2)c(-c2cc(-c3nnc(C(F)F)o3)ccn2)c1=O [Example 88a, 4′-[(4,4-difluorocyclohexyl)oxy]-4-[5-(difluoromethyl)-1,3,4-oxadiazol-2-yl]-1′-methyl[2,3′-bipyridine]-2′(1′H)-one]
11 | 98 | FC(F)c1nnc(-c2ccnc(-c3nc(Cl)c(Cl)n3Cc3ccccn3)c2)o1 [Example 40a, 2-{4,5-dichloro-1-[(pyridin-2-yl)methyl]-1H-imidazol-2-yl}-4-[5-(difluoromethyl)-1,3,4-oxadiazol-2-yl]pyridine]

More lines, now with the values behind:

Row | SMILES | inhibition at 10 µM [%]
12 | O=C1c2cc(-c3nnc(C(F)F)o3)ccc2CN1N(CC1CCOCC1)CC1CCOCC1 [Example 18c, 2-{bis[(oxan-4-yl)methyl]amino}-6-[5-(difluoromethyl)-1,3,4-oxadiazol-2-yl]-2,3-dihydro-1H-isoindol-1-one] | 99
13 | Cc1cc(COc2cccnc2-c2cc(F)cc(-c3nnc(C(F)F)o3)c2)nn1C [Example 10a, 2-(3-[5-(difluoromethyl)-1,3,4-oxadiazol-2-yl]-5-fluorophenyl}-3-[(1,5-dimethyl-1H-pyrazol-3-yl)methoxy]pyridine] | 96
14 | COCCn1ccnc1-c1cc(F)cc(-c2nnc(C(F)F)o2)c1 [Example 27a] | 95
15 | CN1C(=O)c2cc(-c3nnc(C(F)F)o3)ccc2OC1(C)c1ccc(C#N)cc1 (stereo not drawn) [Example 20b, 4-{6-[5-(difluoromethyl)-1,3,4-oxadiazol-2-yl]-2,3-dimethyl-4-oxo-3,4-dihydro-2H-1,3-benzoxazin-2-yl}benzonitrile] | 99
16 | O=C1NN(c2ccc(F)c(F)c2)Cc2ccc(-c3nnc(C(F)F)o3)cc21 [Example 30b, 7-[5-(difluoromethyl)-1,3,4-oxadiazol-2-yl]-3-(3,4-difluorophenyl)-3,4-dihydrophthalazin-1(2H)-one] | 100
17 | O=C1COC[C@@H](Cc2ccccc2)N1c1cc(-c2nnc(C(F)F)o2)ccn1 [Example 19a, (5R)-5-benzyl-4-{4-[5-(difluoromethyl)-1,3,4-oxadiazol-2-yl]pyridin-2-yl}morpholin-3-one] | 99
18 | COCCOc1cccnc1-c1cc(F)cc(-c2nnc(C(F)F)o2)c1 [Example 13a, 2-{3-[5-(difluoromethyl)-1,3,4-oxadiazol-2-yl]-5-fluorophenyl}-3-(2-methoxyethoxy)pyridine] | 92
19 | O=C1NN(C2CCOCC2)Cc2ccc(-c3nnc(C(F)F)o3)cc21 [Example 28b, 7-[5-(difluoromethyl)-1,3,4-oxadiazol-2-yl]-3-(oxan-4-yl)-3,4-dihydrophthalazin-1(2H)-one] | 97
20 | CN1C(=O)c2cc(-c3nnc(C(F)F)o3)ccc2OC1(C)C1CCCCC1 (stereo not drawn) [Example 14b, 2-cyclohexyl-6-[5-(difluoromethyl)-1,3,4-oxadiazol-2-yl]-2,3-dimethyl-2,3-dihydro-4H-1,3-benzoxazin-4-one] | 98
21 | Fc1cc(-c2nnc(C(F)F)o2)cc(-c2nccn2Cc2ccncc2)c1 [Example 24a, 4-[(2-{3-[5-(difluoromethyl)-1,3,4-oxadiazol-2-yl]-5-fluorophenyl}-1H-imidazol-1-yl)methyl]pyridine] | 98
22 | O=C1NN(C2CCCCC2)Cc2ccc(-c3nnc(C(F)F)o3)cc21 [Example 11b, 3-cyclohexyl-7-[5-(difluoromethyl)-1,3,4-oxadiazol-2-yl]-3,4-dihydrophthalazin-1(2H)-one] | 99
23 | O=C1CCCN1CCOc1cccnc1-c1cc(F)cc(-c2nnc(C(F)F)o2)c1 [Example 15a, 1-{2-[(2-{3-[5-(difluoromethyl)-1,3,4-oxadiazol-2-yl]-5-fluorophenyl}pyridin-3-yl)oxy]ethyl}pyrrolidin-2-one] | 92
24 | CC(C)CN(C(=O)OC(C)(C)C)N1Cc2ccc(-c3nnc(C(F)F)o3)cc2C1=O [Example 5c, tert-butyl {6-[5-(difluoromethyl)-1,3,4-oxadiazol-2-yl]-1-oxo-1,3-dihydro-2H-isoindol-2-yl}(2-methylpropyl)carbamate] | 99
25 | CCN(Cc1ccccc1)N1Cc2ccc(-c3nnc(C(F)F)o3)cc2C1=O [Example 8c, 2-[benzyl (ethyl)amino]-6-[5-(difluoromethyl)-1,3,4-oxadiazol-2-yl]-2,3-dihydro-1H-isoindol-1-one] | 95
26 | Cn1ccc(Cn2ccnc2-c2cc(F)cc(-c3nnc(C(F)F)o3)c2)n1 [Example 23a, 2-(difluoromethyl)-5-(3-fluoro-5-{1-[(1-methyl-1H-pyrazol-3-yl)methyl]-1H-imidazol-2-yl}phenyl)-1,3,4-oxadiazole] | 96
27 | CN1C(=O)c2cc(-c3nnc(C(F)F)o3)ccc2OC1(C)c1ccccc1Cl (stereo not drawn) [Example 16b, 2-(2-chlorophenyl)-6-[5-(difluoromethyl)-1,3,4-oxadiazol-2-yl]-2,3-dimethyl-2,3-dihydro-4H-1,3-benzoxazin-4-one] | 98

— patent US12084436B2, “Heterocyclic compound” (Takeda Pharmaceutical Company Limited, priority 2019, dated 2024)
